In data set [1] the target is T1, Cathepsin D (Bos taurus, UniProt P80209).
T1 sequence (P80209 whole entry): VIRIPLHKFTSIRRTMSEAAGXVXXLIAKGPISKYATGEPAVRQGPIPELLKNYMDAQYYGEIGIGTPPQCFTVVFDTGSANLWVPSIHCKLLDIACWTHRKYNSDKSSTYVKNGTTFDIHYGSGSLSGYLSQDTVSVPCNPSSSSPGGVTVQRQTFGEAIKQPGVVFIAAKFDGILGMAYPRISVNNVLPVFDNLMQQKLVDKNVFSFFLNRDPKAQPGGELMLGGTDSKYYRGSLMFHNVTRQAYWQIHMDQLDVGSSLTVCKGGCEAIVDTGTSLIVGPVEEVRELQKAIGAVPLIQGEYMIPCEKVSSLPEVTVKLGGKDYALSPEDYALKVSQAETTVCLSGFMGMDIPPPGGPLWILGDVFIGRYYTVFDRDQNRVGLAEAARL
In words: Inhibition of cathepsin D in bovine cartilage explants assessed as reduction in sulphated GAGs level after 3 days by spectrophotometric 1,9-dimethylmethylene blue shift assay based glycosaminoglycan release method.

Data set [2] in a line: Stability in human liver microsomes assessed as intrinsic clearance. It is filed as ADME. The following applies: read-out: CLH.
The nature of data set [3]: Stability in rat liver microsomes assessed as intrinsic clearance. Format: ADME. Particulars: read-out: CLH. On the technique in general: Liver microsomes are vesicles of endoplasmic reticulum, rich in cytochrome P450 enzymes.
Another data set addresses T2, Renin (Homo sapiens, UniProt P00797).
T2 sequence (P00797 whole entry): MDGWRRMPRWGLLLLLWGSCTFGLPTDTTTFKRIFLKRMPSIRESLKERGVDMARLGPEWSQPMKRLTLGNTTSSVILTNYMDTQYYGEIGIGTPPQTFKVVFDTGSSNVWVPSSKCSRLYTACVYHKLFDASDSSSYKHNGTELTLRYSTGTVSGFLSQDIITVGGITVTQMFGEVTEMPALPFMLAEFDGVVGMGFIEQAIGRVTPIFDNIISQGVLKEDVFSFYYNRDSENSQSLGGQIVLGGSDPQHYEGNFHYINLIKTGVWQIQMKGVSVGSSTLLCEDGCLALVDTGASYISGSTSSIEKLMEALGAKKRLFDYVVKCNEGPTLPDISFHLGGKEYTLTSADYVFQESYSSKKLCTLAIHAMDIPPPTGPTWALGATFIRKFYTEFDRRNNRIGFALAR
In words: Inhibition of human recombinant renin using quenched Dabcyl-g-Abu-IHPFHLVIHT-Edans peptide substrate by fluorescence-based assay.

Data set [4] addresses T3, Cathepsin D (Homo sapiens, UniProt P07339). In words: Inhibition of human liver cathepsin D using MCA-labeled GKPILFFRLK(Dnp)-D-R-NH2 peptide by fluorescence-based assay.
For a further data set, the target named is T4, Cathepsin D (Bos taurus) (UniProt P80209).
T4 sequence (whole entry): T1 sequence (P80209 whole entry)
Briefly: Inhibition of cathepsin D in bovine cartilage explants assessed as reduction in sulphated GAGs level at <1 uM after 3 days by spectrophotometric 1,9-dimethylmethylene blue shift assay based glycosaminoglycan release method.

For data set [5], the target named is T3, Cathepsin D.
The nature of data set [6]: Stability in mouse liver microsomes assessed as intrinsic clearance. It is filed as ADME. Particulars: read-out: CLH.
A short description of data set [7]: Apparent permeability across apical to basolateral side in human Caco2 cells. It is filed as ADME, cell-based. Particulars: Caco-2. Background: Caco-2 monolayers are a common model of the intestinal barrier.
Data set [8] in a line: Inhibition of pepsin (unknown origin). On the set-up: species or system Homo sapiens.

Calls of active or inactive are those of the source. The calls are words filed in the database; no cut-off is given here.

This note sets out measurements from ChEMBL document CHEMBL3351526, “Structure-based optimization of non-peptidic Cathepsin D inhibitors” (Bioorg Med Chem Lett, 2014).

T3 sequence (P07339 65-162 limits assumed): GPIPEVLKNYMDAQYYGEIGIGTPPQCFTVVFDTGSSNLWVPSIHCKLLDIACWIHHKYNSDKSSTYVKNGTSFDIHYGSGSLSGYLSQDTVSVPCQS
T3 sequence (P07339 169-412 limits assumed): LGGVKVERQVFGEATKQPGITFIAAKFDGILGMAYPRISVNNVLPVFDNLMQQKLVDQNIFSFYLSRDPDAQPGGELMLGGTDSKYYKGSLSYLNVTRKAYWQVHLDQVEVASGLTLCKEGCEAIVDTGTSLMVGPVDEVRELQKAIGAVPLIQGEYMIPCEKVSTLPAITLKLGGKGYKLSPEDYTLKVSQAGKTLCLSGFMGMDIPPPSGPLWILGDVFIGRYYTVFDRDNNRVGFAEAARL

`COc1cc(CNC(=O)[C@@H](CC2CCCCC2)NC(=N)NC(=O)Cc2cc(OC)c(OC)cc2Br)ccc1F`: the IC50 – broadly, the concentration that inhibits the measured activity by half – at Cathepsin D [1] was 0.9 µM; at Renin, greater than 30 µM. For the same compound, the microsomal CLint in data set [2] was greater than 1000 µL/min/mg; in [3], 823 µL/min/mg.

In the case of `COc1cc(CC(=O)NC(=N)NCc2ccccc2)c([N+](=O)[O-])cc1OC`, the IC50 on Cathepsin D [4] was 10 µM; on Renin, greater than 30 µM.

As for `COc1cc(Br)c(C(=O)N[C@@H](Cc2cccc(Oc3ccccc3)c2)[C@@H](O)CN(CCc2ccc(Cl)cc2Cl)C(=O)CCN2C(=O)c3ccccc3C2=O)cc1OC`, the inhibition result at Cathepsin D (Bos taurus) was “inactive”. This compound also yielded an IC50 at Cathepsin D [5] of 0.085 µM.

With `COc1ccc(Cl)c(CC(=O)NC(=N)NCc2ccccc2)c1`, the IC50 was 6.1 µM against Cathepsin D [4] and greater than 30 µM at Renin.

For `COc1cc(CNC(=O)[C@@H](CC(C)C)NC(=N)NC(=O)Cc2ccc(OC)c(OC)c2)ccc1F`, the IC50 came to 0.62 µM at Cathepsin D [1] and 8.7 µM at Renin. For the same compound, the microsomal CLint in data set [2] came out at 966 µL/min/mg; in data set [3], 148 µL/min/mg.

As to `COc1ccc(CC(=O)NC(=N)N[C@H](CC(C)C)C(=O)NCc2ccc(-c3nnn[nH]3)cc2)cc1OC`, the microsomal CLint in data set [2] was 69 µL/min/mg; in data set [3], less than 10 µL/min/mg; in data set [6] it was less than 10 µL/min/mg.

Take `COc1cc(Br)c(CC(=O)NC(=N)N[C@H](CC(C)C)C(=O)NCc2cccc(-c3nnn[nH]3)c2)cc1OC`: the microsomal CLint in [2] worked out at 107 µL/min/mg; in data set [3] it was 17 µL/min/mg; in [6], 38 µL/min/mg.

On to `COc1cc(CC(=O)NC(=N)NCc2ccc(Cl)c(Cl)c2)c([N+](=O)[O-])cc1OC`, for which the IC50 is 0.44 µM at Cathepsin D [4] and greater than 30 µM on Renin. Moreover, on Cathepsin D (Bos taurus), the inhibition result was “inactive”.

Regarding `COc1ccc(CNC(=O)[C@@H](CC2CCCCC2)NC(=N)NC(=O)Cc2ccc(OC)c(OC)c2)cc1F`, the IC50 at Renin was determined as 13 µM.

Take `COc1ccc(CC(=O)NC(=N)N[C@H](CC2CCCCC2)C(=O)NCc2ccc(-c3nnn[nH]3)cc2)cc1OC`: the IC50 on Cathepsin D [1] was 1.8 µM. The results for the microsomal CLint in data set [2], in [3] and in data set [6] were 76 µL/min/mg, 38 µL/min/mg and less than 10 µL/min/mg, respectively. For the same compound, in data set [7], the Papp A→B (usually the apparent permeability from the apical to the basolateral side of a cell layer) was determined as 0.25 ×10⁻⁶ cm/s.

For `COc1cc(Br)c(CC(=O)NC(=N)N[C@H](CC2CCCCC2)C(=O)NCc2cccc(-c3nnn[nH]3)c2)cc1OC`, the microsomal CLint was found to be 240 µL/min/mg in data set [2], 33 µL/min/mg in data set [3] and 40 µL/min/mg in data set [6].

At Cathepsin D [4], `COc1ccc(CC(=O)NC(=N)N[C@H](CC2CCCCC2)C(=O)NCc2ccc(F)c(F)c2)cc1OC` showed an IC50 of 0.17 µM.

As for `COc1ccc(CNC(=O)[C@@H](Cc2ccccc2)NC(=N)NC(=O)Cc2ccc(OC)c(OC)c2)cc1OC`, the results for the IC50 on Cathepsin D [1] and at Renin were 0.33 µM and greater than 30 µM, respectively. Further, the microsomal CLint was greater than 1000 µL/min/mg in data set [2] and 384 µL/min/mg in data set [3].

For the compound `COc1cc(CNC(=O)[C@@H](CC2CCCCC2)NC(=N)NC(=O)Cc2ccc(OC)c(OC)c2)ccc1F`, the IC50 turned out to be 0.5 µM at Cathepsin D [1] and 16 µM on Renin. Besides, the microsomal CLint in [2] is greater than 1000 µL/min/mg; in [3], 241 µL/min/mg. Besides, the Papp A→B in [7] worked out at 5 ×10⁻⁶ cm/s.

For `COc1ccc(CC(=O)NC(=N)NCc2ccc(N)cc2)cc1OC`, the IC50 on Cathepsin D [4] is 29 µM; at Renin, greater than 30 µM.

Take `COc1cc(CC(=O)NC(=N)NCc2ccc(Cl)cc2)c([N+](=O)[O-])cc1OC`: the IC50 is 1.5 µM on Cathepsin D [4] and greater than 30 µM on Renin. For the same compound, on Cathepsin D (Bos taurus), the inhibition result was “inactive”.

Consider `COc1ccc(CC(=O)NC(=N)NCc2ccc(C)cc2)cc1OC`, for which the results for the IC50 against Cathepsin D [4] and at Renin were 1.9 µM and greater than 30 µM, respectively. Moreover, the inhibition entry on Cathepsin D (Bos taurus) was “inactive”.

`COc1cc(CC(=O)NC(=N)NCc2ccccc2Cl)c([N+](=O)[O-])cc1OC`: the IC50 is 3 µM at Cathepsin D [4] and greater than 30 µM at Renin. The inhibition result at Cathepsin D (Bos taurus) was “inactive”.

Regarding `COc1cc(CCCC(=O)NC(=N)NCc2ccccc2)c([N+](=O)[O-])cc1OC`, the figures for the IC50 against Cathepsin D [4] and at Renin were 18 µM and greater than 30 µM, respectively.

Turning to `COc1ccc(CNC(=N)NC(=O)Cc2cc(OC)c(OC)cc2[N+](=O)[O-])cc1OC`, the IC50 at Cathepsin D [4] is 2.7 µM; at Renin, greater than 30 µM. Moreover, the inhibition result at Cathepsin D (Bos taurus) was “inactive”.

As to `COc1ccc(CCC(=O)NC(=N)NCc2ccccc2)cc1OC`, the IC50 worked out at 25 µM at Cathepsin D [4] and 20 µM at Renin.

With `COc1ccc(CC(=O)NC(=N)N[C@H](CC(C)C)C(=O)NCc2ccc(-c3nnn[nH]3)c(F)c2)cc1OC`, the microsomal CLint was 54 µL/min/mg in [2] and less than 10 µL/min/mg in data set [3].

Take `COc1ccc(CNC(=O)[C@@H](CC(C)C)NC(=N)NC(=O)Cc2ccc(OC)c(OC)c2)cc1OC`: the microsomal CLint in data set [2] amounted to 262 µL/min/mg; in data set [3] it was 143 µL/min/mg.

`CC(C)CC(=O)N[C@H](C(=O)N[C@H](C(=O)N[C@@H](CC(C)C)[C@@H](O)CC(=O)N[C@@H](C)C(=O)N[C@@H](CC(C)C)[C@@H](O)CC(=O)O)C(C)C)C(C)C` [PEPSTATIN]: in data set [8], the IC50 was 0.0001 µM.
